{"source": "patent US11434219B2", "about": "“Purification of cannabinoids from crude cannabis oil” (TABA IP, LLC, priority 2018, dated 2022)", "assay": "Solvent survey: solubility of THCA in solvents", "type": "physicochemical", "experimental": "Crystallization of THCA solvent survey study is carried out according the general procedure described above at 0° C. using crystalline THCA standard (rather than cannabis oil). The solubility (g/mL) provided an indication of loading capacities: higher loading capacities are desirable to make the process more efficient. The theoretical yield of THCA is determined based on the purity of the standard, which was 97.4%."}
{"smiles": "CCCCCc1cc2c(c(O)c1C(=O)O)[C@@H]1C=C(C)CC[C@H]1C(C)(C)O2", "note": "[THCA, tetrahydrocannabinolic acid]", "values": [{"measurement": "Solubility (g/mL) 22.8° C.", "setting": "solvent 1-Butanol", "value": 0.151, "unit": "g/mL"}, {"measurement": "Solubility (g/mL) 30° C.", "setting": "solvent 1-Butanol", "value": 0.258, "unit": "g/mL"}, {"measurement": "Solubility (g/mL) 40° C.", "setting": "solvent 1-Butanol", "value": 0.514, "unit": "g/mL"}, {"measurement": "Solubility (g/mL) 22.8° C.", "setting": "solvent Acetone", "value": 0.818, "unit": "g/mL"}, {"measurement": "Solubility (g/mL) 30° C.", "setting": "solvent Acetone", "value": 1.063, "unit": "g/mL"}, {"measurement": "Solubility (g/mL) 40° C.", "setting": "solvent Acetone", "value": 1.440, "unit": "g/mL"}, {"measurement": "Solubility (g/mL) 22.8° C.", "setting": "solvent Acetonitrile", "value": 0.562, "unit": "g/mL"}, {"measurement": "Solubility (g/mL) 30° C.", "setting": "solvent Acetonitrile", "value": 0.953, "unit": "g/mL"}, {"measurement": "Solubility (g/mL) 40° C.", "setting": "solvent Acetonitrile", "value": 1.230, "unit": "g/mL"}, {"measurement": "Solubility (g/mL) 22.8° C.", "setting": "solvent DMA", "value": 0.498, "unit": "g/mL"}, {"measurement": "Solubility (g/mL) 30° C.", "setting": "solvent DMA", "value": 0.650, "unit": "g/mL"}, {"measurement": "Solubility (g/mL) 40° C.", "setting": "solvent DMA", "value": 0.892, "unit": "g/mL"}, {"measurement": "Solubility (g/mL) 22.8° C.", "setting": "solvent DMF", "value": 0.612, "unit": "g/mL"}, {"measurement": "Solubility (g/mL) 30° C.", "setting": "solvent DMF", "value": 0.929, "unit": "g/mL"}, {"measurement": "Solubility (g/mL) 40° C.", "setting": "solvent DMF", "value": 1.171, "unit": "g/mL"}, {"measurement": "Solubility (g/mL) 22.8° C.", "setting": "solvent Ethyl Acetate", "value": 0.555, "unit": "g/mL"}, {"measurement": "Solubility (g/mL) 30° C.", "setting": "solvent Ethyl Acetate", "value": 0.931, "unit": "g/mL"}, {"measurement": "Solubility (g/mL) 40° C.", "setting": "solvent Ethyl Acetate", "value": 1.216, "unit": "g/mL"}, {"measurement": "Solubility (g/mL) 22.8° C.", "setting": "solvent Heptane", "value": 0.092, "unit": "g/mL"}, {"measurement": "Solubility (g/mL) 30° C.", "setting": "solvent Heptane", "value": 0.155, "unit": "g/mL"}, {"measurement": "Solubility (g/mL) 40° C.", "setting": "solvent Heptane", "value": 0.258, "unit": "g/mL"}, {"measurement": "Solubility (g/mL) 22.8° C.", "setting": "solvent THF", "value": 0.743, "unit": "g/mL"}, {"measurement": "Solubility (g/mL) 30° C.", "setting": "solvent THF", "value": 1.057, "unit": "g/mL"}, {"measurement": "Solubility (g/mL) 40° C.", "setting": "solvent THF", "value": 1.324, "unit": "g/mL"}, {"measurement": "Solubility (g/mL) 22.8° C.", "setting": "solvent n-Propanol", "value": 0.140, "unit": "g/mL"}, {"measurement": "Solubility (g/mL) 30° C.", "setting": "solvent n-Propanol", "value": 0.360, "unit": "g/mL"}, {"measurement": "Solubility (g/mL) 40° C.", "setting": "solvent n-Propanol", "value": 0.585, "unit": "g/mL"}]}
